According to patent publication US20210261570A1, “ANTIBIOTIC RESISTANCE BREAKERS” (KING'S COLLEGE LONDON, priority 2017, published 2021):
Values after ≈ are worked out from the molar mass of the structure shown. Values joined by “and” are separate entries in the source; they are usually repeats but may differ in a detail not shown here. Equal entries are not always repeated. Where two headings read alike, the source gives them in different places.

Tests used:
[1] = tested on: S. aureus SA 454; test: MIC, MDR strains with target mutations; type: cell-based
[2] = tested on: EMRSA16; test: MIC, microdilution broth method; type: cell-based, Staphylococcus aureus; details: EMRSA16
[3] = tested on: Staphylococcus aureus ATCC29213; test: Murine model of thigh infection (neutropenic ICR mice); details: for decrease of thigh bacterial burden compared to vehicle group: 8 h and 14 h post infection
Description: 40 Male mice used in these study were supplied by Charles River UK and were specific pathogen free. The strain of mouse used was Hsd:ICR (CD-1®), which is a well characterized outbred strain. Mice were 11-15 g on receipt at Evotec's facility and were allowed to acclimatize for minimum of 7 days prior to infection. Mice were approximately 28 g at the start of the study. Mice were housed in sterile individual ventilated cages exposing animals at all times to HEPA filtered sterile air. Mice had free access to food and water (sterile) and had sterile aspen chip bedding. The room temperature was 22° C.±1° C., with a relative humidity of 50-60% and maximum background noise of 56 dB. Mice were exposed to 12 hour light/dark cycles with dawn/dusk phases.
All mice were rendered neutropenic by immunosuppression with cyclophosphamide at 150 mg/kg 4 days before infection and then 100 mg/kg 1 day before infection administered by intraperitoneal injection. The immunosuppression regime leads to neutropenia starting 24 hours post administration of the first injection, which continues throughout the study. Mice were infected approximately 24 hours after the second dose of immunosuppressive agent.
Staphylococcus aureus ATCC29213 was used for the study.
Whilst still under anaesthesia mice were administered a single dose of buprenorphine (0.03 mg/kg) subcutaneously for pain relief.
Test articles and comparator were prepared in stock solutions at 10× concentration as described in Table 20. The stock solutions were prepared in aliquots (1 aliquot per time of dosing) and frozen at −20° C. The solutions were thawed and then diluted in water just before dosing to obtain the appropriate concentration of 5 mg/mL or 2 mg/mL for oral administration at 10 mL/kg of the dose of 50 mg/kg or 20 mg/kg respectively (Table 20). 10% DMSO in water was used as the vehicle
After sacrifice of animal, both posterior thighs were removed, weighed, then homogenised in 2 mL PBS using a Precellys bead beater and the homogenates individually quantitatively cultured on CLED agar to determine the bacterial burdens.
The data from the culture burdens were analysed using appropriate non-parametric statistical models (Kruskal-Wallis using Conover-Inman to make all pairwise comparisons between groups) with StatsDirect software v. 2.7.8., and compared to pre-treatment and vehicle controls.

[4] = tested on: S. aureus USA300; test: MIC; type: cell-based; details: Staphylococcus aureus
[5] = tested on: VRE12201; test: MIC, microdilution broth method; type: cell-based, E. faecalis; details: VRE12201; Gram-positive; in µg/mL
[6] = tested on: E. faecalis EF 602; type: cell-based
[7] = tested on: S. aureus SA 105; type: cell-based; details: in µg/mL
[8] = tested on: S. aureus SH1000; test: MIC; type: cell-based; details: Staphylococcus aureus
[9] = Single dose pharmacokinetics study, oral and intravenous, blood and urine; type: in vivo; details: mouse; for Cmax: read-out: Co/Cmax
Description: ICR breed Mice (CD-1® IGS mice) were used in these studies and was supplied by Charles River (Margate UK) and. The mice were allowed to acclimatise for at least 7 days before starting the study. Treatments was administered by oral route or intravenous route according to the table below. For the PK study, 12 mice for each compound for oral route and 12 mice per compound for the intravenous route was treated. Mice was sequentially bled from a caudal vein into a 20 μL capillary (by agreement containing an anticoagulant) at different time as indicated in table below and a terminal bleed by cardiac puncture at 8 h after administration. Samples collected by capillary was directly transferred into a 96 well and mixed with 20 μL of water, then frozen and store at −80° C. until bioanalysis. Mice for urine collection was housed singly in metabolic cages and urine collected at 0-1, 1-2, 2-4 h and 4-8 h post administration. Urine removed from the collection vessels in the metabolic cages and were frozen and store at −80° C. until bioanalysis. 12 mice were used for urine collection. […] A compound specific LC-MS/MS method was developed for each test compound and samples was quantified using matrix matched calibrators. Samples was prepared for bio-analysis via protein precipitation. Concentration vs time data and non-compartmental analysis was utilised to determine relevant PK parameters e.g. CL, Vss, t1/2, AUCinf AUCo-t, Cmax, tmax, % F, % dose in urine and CLR.

[10] = tested on: S. aureus SA 318; type: cell-based
[11] = tested on: S. aureus SA 388; type: cell-based
[12] = tested on: E. faecium EF 205; type: cell-based
[13] = tested on: S. aureus SA 046; test: MIC, MDR strains with target mutations; type: cell-based
[14] = tested on: S. aureus SA 238; test: MIC, MDR strains with target mutations; type: cell-based
[15] = tested on: S. aureus SA 215; test: MIC, MDR strains with target mutations; type: cell-based; details: in µg/mL
[16] = tested on: multidrug resistant strains; test: Reserpine growth assay in several multidrug resistant strains; type: cell-based; details: FIG. 27
Description: Reserpine was added at a final concentration of 10 g/mL (made up at 40 μg/mL in TSB, 50 μL per well). The bacteria were added at an OD of 0.01 in TSB (100 μL/well). The plate was a normal clear plate as used for MICs. OD was read every 30 minutes for 9 hours (the literature states 7 hours, but this is strain-dependent). Blanks of TSB and water were added to ensure no infections were present.

[17] = tested on: S. aureus SA275 (gyrA, 84: S => L); test: MIC, MDR strains with target mutations; type: cell-based; details: Table 11 second entry
[18] = tested on: S. aureus SA 282; test: MIC, MDR strains with target mutations; type: cell-based
[19] = tested on: EMRSA15; test: MIC, microdilution broth method; type: cell-based, Staphylococcus aureus; details: EMRSA15; in µg/mL
[20] = tested on: S. aureus SA 275; test: MIC, MDR strains with target mutations; type: cell-based; details: S. aureus SA 275 (gyrA, 84: S => V)
[21] = ICR (CD-1 IGS), in vivo, iv, 5.0 mg/kg, blood, Composite Mean
[22] = ICR (CD-1 IGS), in vivo, iv, 5 mg/kg
[23] = ICR (CD-1 IGS), in vivo, po, 20 mg/kg

Q: For `C[C@H]1COc2c(N3CCN(C)CC3)c(F)cc3c(=O)c(C(=O)O)cn1c23` [Levofloxacin, levofloxacin], which MIC [1] is on record?
A: 8 µg/mL (≈ 22.1 µM)

Q: And the MIC ([2]; Gram-positive)?
A: 16 µg/mL (≈ 44.3 µM)

Q: What about the “decrease of thigh bacterial burden compared to vehicle group” value ([3]; 20 mg/kg/dose oral at 2 h, 18 h post infection) of the same compound?
A: ~5 log10 CFU/g

Q: And the “decrease of thigh bacterial burden compared to vehicle group” value ([3]; 50 mg/kg/dose oral at 2 h, 18 h post infection)?
A: ~5 log10 CFU/g

Q: What about the “body weights following infection” value ([3]; in vivo) of the same compound?
A: unchanged

Q: What about the “Statistic analysis of thigh burden, P versus ML-83-009 20 mg/kg” value ([3]; substance at 20 mg/kg) of the same compound?
A: P = 0.0003

Q: What about the “Statistic analysis of thigh burden, P versus ML-83-009 50 mg/kg” value ([3]; substance at 20 mg/kg) of the same compound?
A: P = 0.0058

Q: What about the “Statistic analysis of thigh burden, P versus Vehicle” value ([3]; substance at 20 mg/kg) of the same compound?
A: P < 0.0001

Q: And the “Statistic analysis of thigh burden, P versus ML-83-009 20 mg/kg” value ([3]; substance at 50 mg/kg)?
A: P < 0.0001

Q: And the “Statistic analysis of thigh burden, P versus ML-83-009 50 mg/kg” value ([3]; substance at 50 mg/kg)?
A: P < 0.0001

Q: And the “Statistic analysis of thigh burden, P versus Pre treatment” value ([3]; substance at 50 mg/kg)?
A: P = 0.0084

Q: And the “Statistic analysis of thigh burden, P versus Vehicle” value ([3]; substance at 50 mg/kg)?
A: P < 0.0001

Q: And the MIC [4]?
A: 8 µg/mL (≈ 22.1 µM)

Q: What about the MIC [5] of the same compound?
A: 0.5-1

Q: What about the MIC [6] of the same compound?
A: > 32 µg/mL

Q: What about the MIC [7] of the same compound?
A: 8-16

Q: And the MIC [8]?
A: 2 to 4 µg/mL (≈ 5.53 to 11.1 µM)

Q: And the Cmax ([9]; ICR (CD-1 IGS), in vivo, PO, 20.0 mg/kg, blood, Mean)?
A: 2950 ng/mL

Q: What about the half-life [9, 21] of the same compound?
A: 30 min

Q: What about the Cmax [9, 21] of the same compound?
A: 3890 ng/mL

Q: And the AUC [9, 22]?
A: 3090 ng·h/mL and 8.55 µM·h

Q: And the AUC(0-inf) [9, 22]?
A: 3310 ng·h/mL and 9.19 µM·h

Q: And the MRT [9, 22]?
A: 3 h

Q: And the Vd [9, 22]?
A: 4.5 L/kg

Q: And the clearance [9, 22]?
A: 25.2 mL/min/kg

Q: And the AUC [9, 23]?
A: 4260 ng·h/mL and 11.8 µM·h

Q: And the AUC(0-inf) [9, 23]?
A: 5390 ng·h/mL and 14.9 µM·h

Q: What about the “Bioavailability (%) Using AUCo. t” value [9, 23] of the same compound?
A: 34.5%

Q: And the Tmax [9, 23]?
A: 30 min

Q: What about the T1/2 ([9]; PO, 20.0 mg/kg, blood, Mean) of the same compound?
A: 5.7 h

Q: And the MIC [10]?
A: 16 µg/mL (≈ 44.3 µM)

Q: What about the MIC [11] of the same compound?
A: 16 µg/mL (≈ 44.3 µM)

Q: And the MIC [12]?
A: > 32 µg/mL

Q: What about the MIC [13] of the same compound?
A: 16 µg/mL (≈ 44.3 µM)

Q: And the MIC [14]?
A: 32 µg/mL (≈ 88.6 µM)

Q: And the MIC [15]?
A: 32 and 16

Q: Which results are given for `C[C@H]1COc2c(N3CC[C@@H](Nc4ncccn4)C3)c(F)cc3c(=O)c(C(=O)O)cn1c23` [KSN-L22, (S)-9-fluoro-3-methyl-7-oxo-10-((R)-3-(pyrimidin-2-ylamino)pyrrolidin-1-yl)-2,3-dihydro-7H-[1,4]oxazino[2,3,4-ij]quinoline-6-carboxylic Acid]?
A: MIC [1]: 1 µg/mL (≈ 2.35 µM); efflux from the bacteria (reserpine growth assay) [16]: reduced efflux; MIC [2]: 1 µg/mL (≈ 2.35 µM); MIC [17]: 1 µg/mL (≈ 2.35 µM); thigh bacterial burden, result in words ([3]; 20 and 50 mg/kg, 18 h post infection): statistically significant reduction of bacterial load; MIC [18]: 1 µg/mL (≈ 2.35 µM); MIC [19]: 0.5-1; MIC [7]: 1; clearance ([9]; ICR (CD-1 IGS), in vivo, iv, 5.0 mg/kg, blood, Composite Mean, read-out: Blood CL): 12.5 mL/min/kg; AUC(0-inf) [9, 22]: 6690 ng·h/mL; AUC(0-inf) [9, 23]: 13200 ng·h/mL; Bioavailability (%) Using AUCinf [9, 23]: 49.3%; Bioavailability (%) Using AUCo. t [9, 23]: 32.0%; CL_F [9, 23]: 26.4 mL/min/kg; T1/2 ([9]; PO, 20.0 mg/kg, blood, Mean): 5.1 h; Vdss ([9]; iv, 5.0 mg/kg, blood, Composite Mean): 1.4 L/kg; MIC [20]: 1 µg/mL (≈ 2.35 µM); MIC [13]: 1 µg/mL (≈ 2.35 µM); MIC [14]: 1 µg/mL (≈ 2.35 µM); MIC [15]: 1
